{
  "source": "patent US10208083B2",
  "about": "(priority 2015, dated 2019)",
  "key": {"C57Bl/6 mice": {"system": "C57Bl/6 mice", "conditions": "female, C57Bl/6, mouse, in vivo, ip"}, "T-47D": {"system": "T-47D", "assay": "cells", "assay_type": "cell-based, human", "parameters": "TGI: unit not given here"}, "UWB1.289": {"system": "UWB1.289", "assay": "cells", "assay_type": "cell-based, human", "parameters": "TGI: unit not given here"}, "K-562": {"system": "K-562", "assay": "cells", "assay_type": "cell-based, human", "parameters": "TGI: unit not given here"}, "PC-3": {"system": "PC-3", "assay": "cells", "assay_type": "cell-based, human", "parameters": "TGI: unit not given here"}, "MOLT-4": {"system": "MOLT-4", "assay": "cells", "assay_type": "cell-based, human", "parameters": "TGI: unit not given here"}, "OVCAR-3": {"system": "OVCAR-3", "assay": "cells", "assay_type": "cell-based, human", "parameters": "TGI: unit not given here"}, "UWB1.289 + BRCA1": {"system": "UWB1.289 + BRCA1", "assay": "cells", "assay_type": "cell-based, human", "parameters": "TGI: unit not given here"}, "[1]": {"system": "SCOV-3 human ovarian cancer", "conditions": "in vivo"}, "MCF-7": {"system": "MCF-7", "assay": "cells", "assay_type": "cell-based, human", "parameters": "TGI: unit not given here"}, "SKOV-3": {"system": "SKOV-3", "assay": "cells", "assay_type": "cell-based, human", "parameters": "TGI: unit not given here"}, "in vivo": {"assay": "in vivo", "conditions": "female, C57Bl/6, mouse, ip"}, "[2]": {"system": "murine P388 lymphocytic leukemia", "parameters": "species or system mice", "conditions": "mouse, in vivo, ip"}},
  "note": "Marks after values point to notes of the source that are not given here.",
  "data": [
    {"smiles": "C[C@]12CC[C@H](OC(=O)CCOc3ccc(N(CCCl)CCCl)cc3)CC1=CC(=O)N[C@@H]1[C@@H]2CC[C@]2(C)C(=O)CC[C@@H]12", "note": "[Compound 18]", "values": [
      {"measurement": "LD10", "setting": "C57Bl/6 mice", "value": 85, "unit": "mg/kg"},
      {"measurement": "TGI", "setting": "T-47D", "value": 32},
      {"measurement": "GI50", "setting": "T-47D; Homo sapiens, T47D, 48 h", "value": 14, "unit": "µM"},
      {"measurement": "IC50", "setting": "T-47D; Homo sapiens, T47D, 48 h", "value": 72, "unit": "µM"},
      {"measurement": "TGI", "setting": "UWB1.289", "value": 42},
      {"measurement": "GI50", "setting": "UWB1.289; Homo sapiens, UWB1289, 48 h", "value": 13, "unit": "µM"},
      {"measurement": "IC50", "setting": "UWB1.289; Homo sapiens, UWB1289, 48 h", "value": 70, "unit": "µM"},
      {"measurement": "TGI", "setting": "K-562", "value": 38},
      {"measurement": "GI50", "setting": "K-562; Homo sapiens, K562, 48 h", "value": 6, "unit": "µM"},
      {"measurement": "IC50", "setting": "K-562; Homo sapiens, K562, 48 h", "value": 87, "unit": "µM"},
      {"measurement": "TGI", "setting": "PC-3", "value": 36},
      {"measurement": "GI50", "setting": "PC-3; Homo sapiens, PC-3, 48 h", "value": 23, "unit": "µM"},
      {"measurement": "IC50", "setting": "PC-3; Homo sapiens, PC-3, 48 h", "value": 70, "unit": "µM"},
      {"measurement": "TGI", "setting": "MOLT-4", "value": 38},
      {"measurement": "GI50", "setting": "MOLT-4; Homo sapiens, MOLT-4, 48 h", "value": 5, "unit": "µM"},
      {"measurement": "IC50", "setting": "MOLT-4; Homo sapiens, MOLT-4, 48 h", "value": 76, "unit": "µM"},
      {"measurement": "TGI", "setting": "OVCAR-3", "value": 47},
      {"measurement": "GI50", "setting": "OVCAR-3; Homo sapiens, OVCAR-3, 48 h", "value": 20, "unit": "µM"},
      {"measurement": "IC50", "setting": "OVCAR-3; Homo sapiens, OVCAR-3, 48 h", "value": 70, "unit": "µM"},
      {"measurement": "TGI", "setting": "UWB1.289 + BRCA1", "value": 38},
      {"measurement": "GI50", "setting": "UWB1.289 + BRCA1; Homo sapiens, UWB1289, 48 h", "value": 20, "unit": "µM"},
      {"measurement": "IC50", "setting": "UWB1.289 + BRCA1; Homo sapiens, UWB1289, 48 h", "value": 69, "unit": "µM"},
      {"measurement": "OS % on Day-70", "setting": "[1]", "value": 100, "unit": "%"},
      {"measurement": "PFS % on Day-70", "setting": "[1]", "value": 80, "unit": "%"},
      {"measurement": "TI % at Day-35", "setting": "[1]", "value": 44, "unit": "%"},
      {"measurement": "TGI", "setting": "MCF-7", "value": 46},
      {"measurement": "GI50", "setting": "MCF-7; Homo sapiens, MCF7, 48 h", "value": 21, "unit": "µM"},
      {"measurement": "IC50", "setting": "MCF-7; Homo sapiens, MCF7, 48 h", "value": 79, "unit": "µM"},
      {"measurement": "TGI", "setting": "SKOV-3", "value": 46},
      {"measurement": "GI50", "setting": "SKOV-3; Homo sapiens, SK-OV-3, 48 h", "value": 24, "unit": "µM"},
      {"measurement": "IC50", "setting": "SKOV-3; Homo sapiens, SK-OV-3, 48 h", "value": 68, "unit": "µM"},
      {"measurement": "LD50", "setting": "in vivo", "value": 110, "unit": "mg/kg"},
      {"measurement": "Cures", "setting": "[2]", "value": "0/6"},
      {"measurement": "MST ± SD", "setting": "[2]", "value": 34, "unit": "days"},
      {"measurement": "T/C %", "setting": "[2]", "value": "378* %"}
    ]}
  ]
}
